The source made the active and inactive calls.
What was measured:
Klebsiella pneumoniae [1] = experiment: Bactericidal activity against Klebsiella pneumoniae BAA 2473 assessed as inhibition of bacterial growth in presence of 10 microg/ml of chymotrypsin (reference value: 1.56 to 3.13 microM); type: functional
Salmonella typhimurium = experiment: Antibacterial activity against Salmonella typhimurium DT104 assessed as inhibition of bacterial growth incubated for 16 to 20 hrs; type: functional, Salmonella enterica subsp. enterica serovar Typhimurium; settings: Salmonella enterica, time 16-20 hrs
Enterococcus faecium [2] = experiment: Antibacterial activity against Enterococcus faecium 10067 assessed as inhibition of bacterial growth incubated for 16 to 20 hrs in presence of human serum; type: functional; settings: time 16-20 hrs
Acinetobacter baumannii [3] = experiment: Antibacterial activity against Acinetobacter baumannii 10591 assessed as inhibition of bacterial growth incubated for 16 to 20 hrs; type: functional; settings: time 16-20 hrs
Klebsiella aerogenes [4] = experiment: Bactericidal activity against Enterobacter aerogenes 15630 assessed as inhibition of bacterial growth incubated for 16 to 20 hrs; type: functional; settings: time 16-20 hrs
Vibrio vulnificus [5] = experiment: Antibacterial activity against Vibrio vulnificus 204 assessed as inhibition of bacterial growth incubated for 16 to 20 hrs; type: functional; settings: time 16-20 hrs
Klebsiella pneumoniae [6] = experiment: Antibacterial activity against Klebsiella pneumoniae BAA 2473 assessed as inhibition of bacterial growth incubated for 16 to 20 hrs; type: functional; settings: time 16-20 hrs
Klebsiella pneumoniae [7] = experiment: Antibacterial activity against Klebsiella pneumoniae BAA 2473 assessed as inhibition of bacterial growth in presence of 1 microg/ml of pepsin (reference value: 1.56 to 3.13 microM); type: functional
Enterococcus faecalis = experiment: Bactericidal activity against Enterococcus faecalis 10066 assessed as inhibition of bacterial growth incubated for 16 to 20 hrs; type: functional; settings: time 16-20 hrs
Vibrio vulnificus [8] = experiment: Bactericidal activity against Vibrio vulnificus 204 assessed as inhibition of bacterial growth incubated for 16 to 20 hrs; type: functional; settings: time 16-20 hrs
Klebsiella pneumoniae [9] = experiment: Antibacterial activity against Klebsiella pneumoniae BAA 2473 assessed as inhibition of bacterial growth in presence of 0.1 microg/ml of chymotrypsin (reference value: 1.56 to 3.13 microM); type: functional
Klebsiella pneumoniae [10] = experiment: Antibacterial activity against Klebsiella pneumoniae BAA 2473 assessed as inhibition of bacterial growth in presence of 1 microg/ml of proteinase K (reference value: 1.56 to 3.13 microM); type: functional
Vibrio vulnificus [11] = experiment: Bactericidal activity against Vibrio vulnificus 204 assessed as inhibition of bacterial growth incubated for 16 to 20 hrs in presence of human serum; type: functional; settings: time 16-20 hrs
Klebsiella pneumoniae [12] = experiment: Antibacterial activity against Klebsiella pneumoniae BAA 2473 assessed as inhibition of bacterial growth in presence of 10 microg/ml of trypsin (reference value: 1.56 to 3.13 microM); type: functional
Klebsiella pneumoniae [13] = experiment: Bactericidal activity against Klebsiella pneumoniae 10692 assessed as inhibition of bacterial growth incubated for 16 to 20 hrs; type: functional; settings: time 16-20 hrs
Rhizopus arrhizus [14] = experiment: Antifungal activity against Rhizopus oryzae 34550 assessed as inhibition of fungal growth incubated for 16 to 20 hrs; type: functional; settings: time 16-20 hrs
Klebsiella aerogenes [15] = experiment: Antibacterial activity against Enterobacter aerogenes 15630 assessed as inhibition of bacterial growth incubated for 16 to 20 hrs; type: functional; settings: time 16-20 hrs
Escherichia coli [16] = experiment: Antibacterial activity against Escherichia coli 10675 assessed as inhibition of bacterial growth incubated for 16 to 20 hrs; type: functional; settings: time 16-20 hrs
Escherichia coli [17] = experiment: Bactericidal activity against Escherichia coli 10675 assessed as inhibition of bacterial growth incubated for 16 to 20 hrs in presence of human serum; type: functional; settings: time 16-20 hrs
Escherichia coli [18] = experiment: Antibacterial activity against Escherichia coli 10675 assessed as inhibition of bacterial growth incubated for 16 to 20 hrs in presence of human serum; type: functional; settings: time 16-20 hrs
Klebsiella pneumoniae [19] = experiment: Antibacterial activity against Klebsiella pneumoniae TL 297 assessed as inhibition of bacterial growth incubated for 16 to 20 hrs in presence of human serum; type: functional; settings: time 16-20 hrs
Klebsiella pneumoniae [20] = experiment: Bactericidal activity against Klebsiella pneumoniae BAA 2473 assessed as inhibition of bacterial growth in presence of 0.1 microg/ml of trypsin (reference value: 1.56 to 3.13 microM); type: functional
Staphylococcus aureus = experiment: Antibacterial activity against Staphylococcus aureus 10780 assessed as inhibition of bacterial growth incubated for 16 to 20 hrs in presence of human serum; type: functional; settings: time 16-20 hrs
Cell membrane [21] = experiment: Induction of cell membrane depolarization in Klebsiella pneumoniae BAA 2473 assessed as increase in fluorescence intensity at 1 times MIC incubated for 40 mins by DiBAC4(3) fluorescent dye based assay; type: cell membranes
Rhizopus arrhizus [22] = experiment: Antifungal activity against Rhizopus oryzae 34550 assessed as inhibition of fungal growth incubated for 16 to 20 hrs in presence of human serum; type: functional; settings: time 16-20 hrs
Salmonella enterica [23] = experiment: Bactericidal activity against Salmonella enterica 15455 assessed as inhibition of bacterial growth incubated for 16 to 20 hrs in presence of human serum; type: functional; settings: time 16-20 hrs
Klebsiella pneumoniae [24] = experiment: Bactericidal activity against Klebsiella pneumoniae BAA 2473 assessed as inhibition of bacterial growth incubated for 16 to 20 hrs; type: functional; settings: time 16-20 hrs
Klebsiella pneumoniae [25] = experiment: Antibacterial activity against Klebsiella pneumoniae BAA 2473 assessed as inhibition of bacterial growth in presence of 0.1 microg/ml of trypsin (reference value: 1.56 to 3.13 microM); type: functional
Klebsiella pneumoniae [26] = experiment: Antibacterial activity against Klebsiella pneumoniae BAA 2473 assessed as inhibition of bacterial growth in presence of 1 microg/ml of chymotrypsin (reference value: 1.56 to 3.13 microM); type: functional
Acinetobacter baumannii [27] = experiment: Bactericidal activity against Acinetobacter baumannii 10591 assessed as inhibition of bacterial growth incubated for 16 to 20 hrs; type: functional; settings: time 16-20 hrs
Salmonella enterica [28] = experiment: Antibacterial activity against Salmonella enterica 15455 assessed as inhibition of bacterial growth incubated for 16 to 20 hrs; type: functional; settings: time 16-20 hrs
Rhizopus arrhizus [29] = experiment: Fungicidal activity against Rhizopus oryzae 34550 assessed as inhibition of fungal growth incubated for 16 to 20 hrs in presence of human serum; type: functional; settings: time 16-20 hrs
Klebsiella pneumoniae [30] = experiment: Bactericidal activity against Klebsiella pneumoniae BAA 2473 assessed as inhibition of bacterial growth in presence of 1 microg/ml of chymotrypsin (reference value: 1.56 to 3.13 microM); type: functional
Klebsiella pneumoniae [31] = experiment: Induction of morphological changes in Klebsiella pneumoniae BAA 2473 assessed as membrane deformations with protruding granules at by transmission electron microscopy analysis; type: functional, organism-based
Pseudomonas aeruginosa = experiment: Antibacterial activity against Pseudomonas aeruginosa 19660 assessed as inhibition of bacterial growth incubated for 16 to 20 hrs in presence of human serum; type: functional; settings: time 16-20 hrs
Cell membrane [32] = experiment: Induction of outer cell membrane permeabilization in Klebsiella pneumoniae BAA 2473 assessed as increase in fluorescence intensity by NPN uptake assay; type: cell membranes
Lipopolysaccharide (LPS) = experiment: Displacement of BODIPY-TR-cadaverine from Klebsiella pneumoniae BAA 2473 lipopolysaccharide (LPS) assessed as increase in fluorescence intensity at 3.125 uM by fluorescence spectrophotometric analysis; type: subcellular
Enterococcus faecium [33] = experiment: Bactericidal activity against Enterococcus faecium 10067 assessed as inhibition of bacterial growth incubated for 16 to 20 hrs in presence of human serum; type: functional; settings: time 16-20 hrs
Klebsiella pneumoniae [34] = experiment: Bactericidal activity against Klebsiella pneumoniae BAA 2473 assessed as inhibition of bacterial growth in presence of 10 microg/ml of trypsin (reference value: 1.56 to 3.13 microM); type: functional
Escherichia coli [35] = experiment: Bactericidal activity against Escherichia coli 10675 assessed as inhibition of bacterial growth incubated for 16 to 20 hrs; type: functional; settings: time 16-20 hrs
Klebsiella pneumoniae [36] = experiment: Antibacterial activity against Klebsiella pneumoniae 10692 assessed as inhibition of bacterial growth incubated for 16 to 20 hrs; type: functional; settings: time 16-20 hrs

CC(C)C[C@H](NC(=O)[C@@H](C)NC(=O)[C@@H](CCCCN)NC(=O)[C@H](CC(C)C)NC(=O)[C@@H](CC(C)C)NC(=O)[C@@H](CCCCN)NC(=O)[C@H](CCCCN)NC(=O)[C@@H](CC(C)C)NC(=O)[C@H](N)Cc1ccccc1)C(=O)N[C@H](Cc1ccccc1)C(=O)N[C@H](CO)C(=O)N[C@@H](C)C(=O)N1CCC[C@@H]1C(=O)N[C@H](CCCCN)C(=O)N[C@@H](C)C(=O)N[C@H](CC(C)C)C(=O)N[C@H](CCCCN)C(=O)N[C@@H](CCCNC(=N)N)C(=O)N[C@H](CC(C)C)C(=O)N[C@H](CC(C)C)C(=O)N[C@@H](CCCNC(=N)N)C(=O)N[C@H](CCCNC(=N)N)C(=O)N[C@H](CCCNC(=N)N)C(=O)N[C@@H](CCCNC(=N)N)C(=O)N[C@@H](CCCNC(=N)N)C(=O)O
100%: Activity (Lipopolysaccharide (LPS))
active: Activity (Cell membrane [21]) | Activity (Klebsiella pneumoniae [31]) | Activity (Cell membrane [32])
3.13 µM: MIC (Salmonella typhimurium) | MIC (Acinetobacter baumannii [3]) | MBC (Klebsiella aerogenes [4]) | MIC (Klebsiella aerogenes [15]) | MBC (Acinetobacter baumannii [27]) | MIC (Salmonella enterica [28])
25 µM: MBC (Klebsiella pneumoniae [13]) | MBC (Klebsiella pneumoniae [24])
0.78 µM: MBC (Klebsiella pneumoniae [1]) | MIC (Klebsiella pneumoniae [6]) | MIC (Klebsiella pneumoniae [7]) | MIC (Klebsiella pneumoniae [9]) | MIC (Klebsiella pneumoniae [10]) | MIC (Klebsiella pneumoniae [12]) | MBC (Escherichia coli [17]) | MIC (Escherichia coli [18]) | MBC (Salmonella enterica [23]) | MIC (Klebsiella pneumoniae [25]) | MIC (Klebsiella pneumoniae [26]) | MBC (Klebsiella pneumoniae [30])
100 µM: MIC (Enterococcus faecium [2]) | MFC (Rhizopus arrhizus [29]) | MBC (Enterococcus faecium [33])
1.56 µM: MIC (Rhizopus arrhizus [14]) | MIC (Escherichia coli [16]) | MIC (Klebsiella pneumoniae [19]) | MBC (Klebsiella pneumoniae [20]) | MBC (Klebsiella pneumoniae [34]) | MBC (Escherichia coli [35])
6.25 µM: MIC (Vibrio vulnificus [5]) | MIC (Staphylococcus aureus) | MIC (Rhizopus arrhizus [22]) | MIC (Pseudomonas aeruginosa) | MIC (Klebsiella pneumoniae [36])
12.5 µM: MBC (Enterococcus faecalis) | MBC (Vibrio vulnificus [8]) | MBC (Vibrio vulnificus [11])

H-FIHHIIGGLFSAGKAIHRLIRRRRR-OH
0.78 µM: MBC (Klebsiella pneumoniae [13]) | MIC (Klebsiella aerogenes [15]) | MIC (Klebsiella pneumoniae [36])
95%: Activity (Lipopolysaccharide (LPS))
> 100 µM: MBC (Klebsiella pneumoniae [1]) | MIC (Klebsiella pneumoniae [7]) | MIC (Klebsiella pneumoniae [10]) | MBC (Vibrio vulnificus [11]) | MIC (Klebsiella pneumoniae [12]) | MBC (Escherichia coli [17]) | MIC (Escherichia coli [18]) | MIC (Klebsiella pneumoniae [19]) | MIC (Staphylococcus aureus) | MIC (Klebsiella pneumoniae [26]) | MBC (Klebsiella pneumoniae [30]) | MIC (Pseudomonas aeruginosa) | MBC (Klebsiella pneumoniae [34])
6.25 µM: MIC (Salmonella typhimurium) | MBC (Klebsiella aerogenes [4]) | MIC (Escherichia coli [16]) | MBC (Escherichia coli [35])
active: Activity (Cell membrane [21]) | Activity (Klebsiella pneumoniae [31]) | Activity (Cell membrane [32])
> 25 µM: MIC (Rhizopus arrhizus [22])
100 µM: MIC (Enterococcus faecium [2]) | MBC (Salmonella enterica [23]) | MBC (Rhizopus arrhizus [29]) | MBC (Enterococcus faecium [33])
3.13 µM: MIC (Vibrio vulnificus [5]) | MBC (Enterococcus faecalis) | MBC (Vibrio vulnificus [8]) | MBC (Klebsiella pneumoniae [20]) | MBC (Klebsiella pneumoniae [24]) | MIC (Salmonella enterica [28])
1.56 µM: MIC (Acinetobacter baumannii [3]) | MIC (Klebsiella pneumoniae [6]) | MIC (Klebsiella pneumoniae [9]) | MIC (Rhizopus arrhizus [14]) | MIC (Klebsiella pneumoniae [25]) | MBC (Acinetobacter baumannii [27])

Source: ChEMBL document CHEMBL5505958, “Optimization of sequence and chiral content enhances therapeutic potential of tilapia piscidin peptides” (Eur J Med Chem, 2024)
